According to patent US20130236904A1, “METHOD FOR SCREENING FOR MATERIALS FOR PROMOTING THE DIFFERENTIATION OF SKIN CELLS” (AMOREPACIFIC CORPORATION, priority 2010, published 2013):

Tested on: DUOX 1 gene
Test: DUOX 1 gene expression by calcium concentration (Q-RT-PCR)
Type: cell-based
Conditions: normal human epidermal keratinocytes, 1.2 mM calcium (high calcium group) vs 120 μM (control), 24 hours; FIG. 1
Description: Normal human epidermal keratinocytes (human epidermal neonatal keratinocyte cells) are purchased from Lonza, Inc. (Walkersville, Md., USA) and subcultured, and then incubated in a CO2 incubator under a condition of 37° C. and 5% CO2. Cell culture is prepared according to the instructions of Lonza, Inc. (Walkersville, Md., USA). KGM-2 bullet kit [bovine pituitary extract (BPE), 2 ml), human epidermal growth factor (hEGF, 0.5 ml), insulin (0.5 ml), hydrocortisone (0.5 ml), transferrin (0.5 ml), epinephrine (0.5 ml), gentamycin sulfate+amphofericin B (GA-1000, 0.5 ml)] are added to KBM-2 (Clonetics CC-3103) medium (500 ml).
120 μM and 1.2 mM Calcium are added to the culture medium of human epidermal keratinocytes, respectively, and the cells are incubated for 24 hours. Each of them is used as a low calcium group (control group) and a high calcium group (test group). […] The isolated RNA is purified once more using an RNA kit (Qiagen RNeasy kit, Qiagen, Valencia, Calif.) and RNA quality is verified using Agilent 2100 BioAnalyzer (Agilent Technologies, Santa Clara, Calif., USA). cDNA is synthesized from the isolated RNA using a reverse transcription kit (Superscript Reverse Transcriptase (RT) II kit, Invitrogen, Carlsbad, Calif.), and expression of various NOX genes is quantitatively analyzed by means of real time-reverse transcription polymerase chain reaction (Q-RT-PCR). […]

## [Ca+2] [calcium, Calcium]
  expression of DUOX 1 gene: more remarkably increased
